Source: patent publication US20260355239A1, “COMBINATION OF A T CELL THERAPY AND CONTINUOUS OR INTERMITTENT DGK INHIBITOR DOSING” (Juno Therapeutics, Inc., priority 2022, published 2026)

Assays:
[1] = test system: Granta-519 tumor spheroids; assay: Rescue treatment: cytolytic activity of chronically stimulated CAR-T cells, 3D spheroids, Granta-519; format: cell-based, human; settings: day 9
[2] = test system: A549.CD19 tumor spheroids; assay: Rescue treatment: cytolytic activity of chronically stimulated CAR-T cells, 3D spheroids, A549.CD19; format: cell-based, human; settings: day 9
[3] = test system: anti-CD19 CAR-T cells with K562.CD19, Granta-519 and Raji cells; assay: CAR-T cell cytokine production in co-culture (MSD); format: cell-based, human
[4] = test system: HPV-expressing CaSki cells; assay: Rescue treatment: cytolytic function of chronically stimulated eTCR T cells; format: cell-based, human; settings: 100 nM, 2.5:1 effector:target, 10 or 20 μg/mL anti-Vbeta chronic stimulation
Description: Primary human CD4+ and CD8+ T cells were isolated from healthy donors by immunoaffinity-based methods. The isolated CD4+ and CD8+ T cells were combined and stimulated with an anti-CD3/anti-CD28 reagent, and then were transduced with a lentiviral vector encoding an anti-human papillomavirus 16 (anti-HPV16) eTCR. The nucleotide sequences encoding the beta chain and the alpha chain of the eTCR were separated by a sequence encoding a 2A ribosome skip element. Following transduction, the cells were cultured in media containing human serum and cytokines for 9-10 days prior to further assessment.
To assess the effects of rescue treatment with Compound 17 on cytolytic function, eTCR cells were stimulated for six days using 10 μg/mL or 20 μg/mL plate-bound antibody against the TCR Vbeta chain in the absence of Compound 17.
Following chronic stimulation, the eTCR-T cells were co-cultured with HPV-expressing CaSki cells at a 2.5:1 effector:target ratio in the presence of Compound 17 at 100 nM. As a control, chronically stimulated eTCR cells were co-cultured with CaSki cells in the absence of Compound 17. The CaSki cells were transduced with NucLight Red (NLR) and tumor cell number was monitored by Incucyte®.

Raji cells = assay: Rescue treatment: cytolytic activity of chronically stimulated CAR-T cells, 2D, Raji; format: cell-based, human; settings: higher concentrations, 2D co-culture
Protocol: Anti-CD19 CAR-expressing T cells, produced as described in Example 2, were chronically stimulated with plate-bound CAR-specific anti-idiotypic antibody for seven days as described in Example 3, but in the absence of Compound 17 during chronic stimulation. Instead, chronically stimulated CAR T cells were treated with Compound 17 during re-challenge with CD19-expressing tumor cells, after which cytolytic activity and cytokine production were assessed.
The chronically stimulated CAR-T cells were incubated with various CD19-expressing lymphoma cells at a 2.5:1 effector:target ratio in the presence of DGKi (0-1000 nM). The tumor cells were labeled with NucLight Red (NLR) and tumor cell number was monitored by Incucyte®.

[5] = test system: Nalm6 leukemia tumor cells; assay: In vivo anti-tumor effect with CAR T cells, Nalm6-rFluc NSG mice (Example 10)
Protocol: The in vivo anti-tumor effects of a continuous Compound 17 dosing regimen in combination with anti-CD19 CAR T cells were assessed in a second CD19-expressing tumor model.

[6] = test system: engineered T cells for the T cell therapy; assay: In vivo anti-tumor effects and CAR T cell expansion/persistence with continuous DGKi dosing (summary of observations)
Description: Without wishing to be limited by a specific mechanism of action, the results shown herein are consistent with a finding that the continuous presence of the DGKi following T cell therapy administration may prevent or reduce exhaustion in T cells of the T cell therapy, thereby improving T cell anti-tumor activity and proliferative capacity following administration.

T cells = assay: T cell function and exhaustion of engineered T cells in presence of DGKi (summary of observations); format: cell-based, human
Description: In some aspects, the provided methods enhance or modulate proliferation and/or activity of T cell activity associated with administration of the T cell therapy (e.g. CAR-expressing T cells).
Thus, while in some cases agents that increase or potentiate T cell activity may drive the cells to an exhausted state, it is found herein that activity of such DGKi, e.g., Compound 17, to exert a potentiating effect on T cell activity is decoupled from T cell exhaustion. In some embodiments, the provided methods involving compound administration of such DGKi, e.g., Compound 17, is capable of potentiating activity of T cells and delaying, limiting, reducing, inhibiting or preventing exhaustion.
(§1) These observations were made using a chronic stimulation assay to render T cells (e.g. CAR T cells) hypofunctional (e.g. reduced cytolysis and IL-2 secretion). Using this model, engineered T cells (e.g. CAR T cells or eTCR T cells) were examined to assess impact of DGKi, such as Compound 17, on function of the engineered T cells when present during (concurrent) or following (rescue) exposure to conditions leading to a hypofunctional, exhaustive state.

CAR-expressing T cells = assay: Chronic stimulation assay, concurrent treatment: tumor cell numbers, spheroid volume and cytokines during re-challenge of CAR-expressing T cells (FIGS. 5A-6B); format: cell-based, human
Description: FIGS. 5A-5B and 6A-6B show cytolytic activity and cytokine production during re-challenge of CAR-expressing T cells chronically stimulated in the presence of Compound 17 (concurrent treatment).
as §1

Nalm6-rFluc cells = assay: Tumor cell re-challenge after CAR T cell combination, Nalm6-rFluc (Example 11); format: in vivo, NSG mice
Protocol: Mice in Example 10 who received the CAR T cell combination with continuous Compound 17 dosing regimen were re-challenged by intravenous injection of 5×10^6 Nalm6-rFluc cells on Day 71. For comparison, 5×10^6 Nalm6-rFluc cells were intravenously injected into naive mice that had not previously been injected with or administered Nalm6-rFluc cells, CAR T cells, or Compound 17 (n=4 per group). […] Tumor burden was assessed for 10 days following re-challenge. Survival of treated mice was assessed until 30 days post re-challenge.

[7] = 0.3 mg/kg oral once daily Days 1-30 with 1×10^6 CAR T cells, vs CAR T cells or Compound 17 alone

## CC[C@H]1CN([C@@H](CC)c2ccc(C(F)(F)F)cc2)[C@H](CC)CN1c1nc(=O)n(C)c2ccc(C#N)nc12 [Compound 17, 4-((2S,5R)-2,5-diethyl-4-((S)-1-(4-(trifluoromethyl)phenyl)propyl)piperazin-1-yl)-1-methyl-2-oxo-1,2-dihydropyrido[3,2-d]pyrimidine-6-carbonitrile]
[1]
  cytolytic activity of CAR T cells against Granta-519 spheroids: improved the cytolytic activity of CAR T cells against both A549.CD19 and Granta-519 tumor spheroids
[2]
  cytolytic activity of CAR T cells against A549.CD19 spheroids: improved the cytolytic activity of CAR T cells against both A549.CD19 and Granta-519 tumor spheroids
[3]; 48 h co-culture with K562.CD19, Granta-519, Raji
  production of IFNγ, IL-2 and TNFα: dose-dependent increase in production of all three cytokines
[3]; higher concentrations of Compound 17, Granta-519 cells (low CD19)
  cytokine production, particularly IL-2, greatest effect: greatest effect during co-culture with Granta-519 cells
[4]
  cytolytic function of chronically stimulated eTCR cells: able to improve cytolytic function of chronically stimulated eTCR cells
Raji cells
  cytolytic activity of CAR T cells against Raji cells: not Raji cells
[5]; 0.3 mg/kg oral once daily Days 1-30 following CAR T cells
  CAR T cell expansion and/or persistence: increased CAR T cell expansion and/or persistence
[5]; [7]
  survival: improved survival
  tumor burden: lowered tumor burden
[5]; 0.3 mg/kg with CAR T cells, vs CAR T cells alone
  tumor suppression (tumor control index): enhanced tumor suppression
[5]; 0.3 mg/kg with CAR T cells, vs separate previous experiments without Compound 17
  tumor burden vs historical CAR T cell data: lower tumor burden than the mice in the separate previous experiments
[5]; 0.3 or 0.6 mg/kg oral once daily Days 1-30, without CAR T cells
  single-agent effects: No single-agent effects of Compound 17 were observed
[6]; continuous dosing, at least once daily for a plurality of consecutive days, with engineered T cells
  in vivo anti-tumor effects: improves in vivo anti-tumor effects
[6]; continuous presence of DGKi beginning on same day as T cell therapy
  CAR T cell expansion and/or persistence: can improve CAR T cell expansion and/or persistence, in particular that of CD4+ CAR T cells
T cells
  T cell function (cytokine production, cytotoxicity, expansion, proliferation, persistence): improves T cell function
T cells; chronic (long-term) stimulation
  effect on T cell exhaustion: reverse, delay, or prevent T cell exhaustion
CAR-expressing T cells
  effect of concurrent treatment on hypofunctionality upon rechallenge with antigen: reversed activity and phenotypes associated with T cell hypofunctionality and preserved more effector function
Nalm6-rFluc cells; re-challenge Day 71 after CAR T + Compound 17, until 30 days post re-challenge
  survival after re-challenge: survival benefit
Nalm6-rFluc cells; re-challenge Day 71 after CAR T + Compound 17, vs naive mice
  tumor growth after re-challenge: delayed tumor growth
